Measured values from ChEMBL document CHEMBL2380247, “Synthesis and biological evaluation of novel aliphatic amido-quaternary ammonium salts for anticancer chemotherapy: part II” (2013).

Experiments:
Type in all cases: functional
[1] = system: MDA-MB-231; test: Antiproliferative activity against human MDA-MB-231 cells at 10 uM by SRB assay
[2] = system: NCI-H23; test: Antiproliferative activity against human NCI-H23 cells at 0.1 uM by SRB assay
[3] = system: NCI-H23; test: Antiproliferative activity against human NCI-H23 cells by SRB assay
[4] = system: ACHN; test: Antiproliferative activity against human ACHN cells by SRB assay
[5] = system: NCI-H23; test: Antiproliferative activity against human NCI-H23 cells at 1 uM by SRB assay
[6] = system: MDA-MB-231; test: Antiproliferative activity against human MDA-MB-231 cells at 1 uM by SRB assay
[7] = system: HCT-15; test: Antiproliferative activity against human HCT15 cells by SRB assay
[8] = system: ACHN; test: Antiproliferative activity against human ACHN cells at 0.1 uM by SRB assay
[9] = system: PC-3; test: Antiproliferative activity against human PC3 cells at 3 uM by SRB assay
[10] = system: NUGC-3; test: Antiproliferative activity against human NUGC3 cells at 3 uM by SRB assay
[11] = system: PC-3; test: Antiproliferative activity against human PC3 cells at 0.1 uM by SRB assay
[12] = system: MDA-MB-231; test: Antiproliferative activity against human MDA-MB-231 cells at 0.1 uM by SRB assay
[13] = system: MDA-MB-231; test: Antiproliferative activity against human MDA-MB-231 cells at 3 uM by SRB assay
[14] = system: PC-3; test: Antiproliferative activity against human PC3 cells at 0.3 uM by SRB assay
[15] = system: HCT-15; test: Antiproliferative activity against human HCT15 cells at 3 uM by SRB assay
[16] = system: HCT-15; test: Antiproliferative activity against human HCT15 cells at 10 uM by SRB assay
[17] = system: ACHN; test: Antiproliferative activity against human ACHN cells at 1 uM by SRB assay
[18] = system: ACHN; test: Antiproliferative activity against human ACHN cells at 0.3 uM by SRB assay
[19] = system: HCT-15; test: Antiproliferative activity against human HCT15 cells at 0.3 uM by SRB assay
[20] = system: ACHN; test: Antiproliferative activity against human ACHN cells at 10 uM by SRB assay
[21] = system: NCI-H23; test: Antiproliferative activity against human NCI-H23 cells at 10 uM by SRB assay
[22] = system: NUGC-3; test: Antiproliferative activity against human NUGC3 cells at 0.1 uM by SRB assay
[23] = system: PC-3; test: Antiproliferative activity against human PC3 cells at 10 uM by SRB assay
[24] = system: PC-3; test: Antiproliferative activity against human PC3 cells at 1 uM by SRB assay
[25] = system: NUGC-3; test: Antiproliferative activity against human NUGC3 cells by SRB assay
[26] = system: NUGC-3; test: Antiproliferative activity against human NUGC3 cells at 1 uM by SRB assay
[27] = system: ACHN; test: Antiproliferative activity against human ACHN cells at 3 uM by SRB assay
[28] = system: MDA-MB-231; test: Antiproliferative activity against human MDA-MB-231 cells by SRB assay
[29] = system: NUGC-3; test: Antiproliferative activity against human NUGC3 cells at 10 uM by SRB assay
[30] = system: HCT-15; test: Antiproliferative activity against human HCT15 cells at 1 uM by SRB assay
[31] = system: NUGC-3; test: Antiproliferative activity against human NUGC3 cells at 0.3 uM by SRB assay
[32] = system: NCI-H23; test: Antiproliferative activity against human NCI-H23 cells at 0.3 uM by SRB assay
[33] = system: MDA-MB-231; test: Antiproliferative activity against human MDA-MB-231 cells at 0.3 uM by SRB assay
[34] = system: NCI-H23; test: Antiproliferative activity against human NCI-H23 cells at 3 uM by SRB assay
[35] = system: HCT-15; test: Antiproliferative activity against human HCT15 cells at 0.1 uM by SRB assay
[36] = system: PC-3; test: Antiproliferative activity against human PC3 cells by SRB assay

| SMILES | GI50 [3] | GI50 [4] | GI50 [7] | GI50 [36] | growth, % of control at 10 µM [1] | growth, % of control at 0.1 µM [2] | growth, % of control at 1 µM [5] | growth, % of control at 1 µM [6] | growth, % of control at 0.1 µM [8] | growth, % of control at 3 µM [9] | growth, % of control at 3 µM [10] | growth, % of control at 0.1 µM [11] | growth, % of control at 0.1 µM [12] | growth, % of control at 3 µM [13] | growth, % of control at 0.3 µM [14] | growth, % of control at 3 µM [15] | growth, % of control at 10 µM [16] | growth, % of control at 1 µM [17] | growth, % of control at 0.3 µM [18] | GI50 [25] | further results |
| --- | --- | --- | --- | --- | --- | --- | --- | --- | --- | --- | --- | --- | --- | --- | --- | --- | --- | --- | --- | --- | --- |
| C=CC[N+](C)(C)CC(C)(C)CNC(=O)CCCCCCCCCCCCCCCCC | 900 nM | 1750 nM | > 10000 nM | 470 nM | 25% | 92.8% | 75.3% | 80.8% | 93.2% | -27.7% | 28.5% | 94.9% | 94.3% | 48.3% | 91% | 85.5% | 61.7% | 85.1% | 93.5% | 770 nM | growth, % of control at 0.3 µM [19]: 99.8%; growth, % of control at 10 µM [20]: 3.8%; growth, % of control at 10 µM [21]: -40%; growth, % of control at 0.1 µM [22]: 92.3%; growth, % of control at 10 µM [23]: -45.4%; growth, % of control at 1 µM [24]: 33.7%; growth, % of control at 1 µM [26]: 65.2%; growth, % of control at 3 µM [27]: 60.4%; GI50 [28]: 1640 nM; growth, % of control at 10 µM [29]: -5.72%; growth, % of control at 1 µM [30]: 99%; growth, % of control at 0.3 µM [31]: 89.9%; growth, % of control at 0.3 µM [32]: 93.7%; growth, % of control at 0.3 µM [33]: 88.8%; growth, % of control at 3 µM [34]: 29.4%; growth, % of control at 0.1 µM [35]: 102% |
| CCCCCCCCCCCCCCCC(=O)N(C)CC[N+](C)(C)CC | 580 nM | 580 nM | 1010 nM | 250 nM | -4.7% | 91.2% | 53.8% | 59.1% | 110% | -14.5% | 9.7% | 90% | 102% | 21.9% | 84% | 37.8% | 17.8% | 46.3% | 95% | 410 nM | growth, % of control at 0.3 µM [19]: 85.9%; growth, % of control at 10 µM [20]: -14.5%; growth, % of control at 10 µM [21]: -9.2%; growth, % of control at 0.1 µM [22]: 99.1%; growth, % of control at 10 µM [23]: -18.9%; growth, % of control at 1 µM [24]: 10.8%; growth, % of control at 1 µM [26]: 38.2%; growth, % of control at 3 µM [27]: 10.2%; GI50 [28]: 660 nM; growth, % of control at 10 µM [29]: -11.1%; growth, % of control at 1 µM [30]: 70.5%; growth, % of control at 0.3 µM [31]: 91.8%; growth, % of control at 0.3 µM [32]: 84.4%; growth, % of control at 0.3 µM [33]: 101%; growth, % of control at 3 µM [34]: 30.6%; growth, % of control at 0.1 µM [35]: 93.4% |
| CCCCCCCCCCCCCCCCCCOP(=O)([O-])OC1CC[N+](C)(C)CC1 [PERIFOSINE] | – | – | – | 440 nM | – | – | – | – | – | – | – | – | – | – | – | – | – | – | – | 540 nM | – |

The remaining compounds from weak to strong by GI50 [36], led by results:

| GI50 [3] | GI50 [4] | GI50 [7] | GI50 [36] | SMILES | growth, % of control at 10 µM [1] | growth, % of control at 0.1 µM [2] | growth, % of control at 1 µM [5] | growth, % of control at 1 µM [6] | growth, % of control at 0.1 µM [8] | growth, % of control at 3 µM [9] | growth, % of control at 3 µM [10] | growth, % of control at 0.1 µM [11] | growth, % of control at 0.1 µM [12] | growth, % of control at 3 µM [13] | growth, % of control at 0.3 µM [14] | growth, % of control at 3 µM [15] | growth, % of control at 10 µM [16] | growth, % of control at 1 µM [17] | growth, % of control at 0.3 µM [18] | GI50 [25] | further results |
| --- | --- | --- | --- | --- | --- | --- | --- | --- | --- | --- | --- | --- | --- | --- | --- | --- | --- | --- | --- | --- | --- |
| – | – | 580 nM | 480 nM | CCCCCCCCCCCCCCCC(=O)N1CC[N+](C)(C)CC1 | – | – | – | – | – | – | – | – | – | – | – | – | – | – | – | 290 nM | – |
| 280 nM | 230 nM | 4330 nM | 260 nM | CCCCCCCCCCCCCC(=O)N(C)CC[N+](CC)(CC)CC | -8% | 83.6% | 29% | 33.2% | 103% | -7.5% | -4.9% | 95.7% | 92.9% | 11.3% | 84.7% | 79.2% | 43.1% | 24.1% | 63.2% | 160 nM | growth, % of control at 10 µM [20]: -15.5%; growth, % of control at 10 µM [21]: -7.7%; growth, % of control at 0.1 µM [22]: 96.3%; growth, % of control at 10 µM [23]: -22.4%; growth, % of control at 1 µM [24]: 11.7%; growth, % of control at 1 µM [26]: 3%; growth, % of control at 3 µM [27]: 9.4%; GI50 [28]: 360 nM; growth, % of control at 10 µM [29]: -7.5%; growth, % of control at 1 µM [30]: 88%; growth, % of control at 0.3 µM [31]: 56.2%; growth, % of control at 0.3 µM [32]: 76.2%; growth, % of control at 0.3 µM [33]: 86.6%; growth, % of control at 3 µM [34]: 3.7%; growth, % of control at 0.1 µM [35]: 90.7% |
